Reference: patent US6730334B2, “Multi-arm block copolymers as drug delivery vehicles” (Nektar Therapeutics AL, Corporation, priority 2001, dated 2004)
Converted amounts (≈) assume the structure as drawn.

Tests used:
[1] = Solubility of drugs in plain buffer and in PPO-PEG multi-arm block copolymer 10050 formulation; type: physicochemical; details: thermodynamic from solid; for solubility: aqueous buffer, phosphate buffer, 0.1 M, pH 7.4, read-out: Solubility of Drug in Plain Buffer; for solubility at 2 h: aqueous with cosolvent or surfactant or cyclodextrin, 50 mg PPO-PEG block copolymer 10050/drug formulation, 10 wt. % drug loading, in 1 ml phosphate buffer 0.1 M pH 7.4, 0.2 μm filtered
Procedure: After two hours of mixing, the mixture was filtered through 0.2 μm syringe filter. The drug concentration in the filtrate was determined by HPLC or UV using a standard curve.

[2] = Drug concentration by HPLC in drug-loaded 8-arm-PCL-PEG26kDa solution; type: physicochemical; details: 6 mg drug + 60 mg 8-arm-PCL-PEG26kDa (1/10) in 1 ml phosphate buffer 0.1 M pH 7.0, 0.2 μm filtered
Procedure: (§1) The solution was dried under argon. The dried solid was heated at 55° C. for two hours under argon. The melt was then cooled to room temperature, placed under vacuum overnight, and reduced to small particles. To the particles was added 1 ml of phosphate buffer (0.1 M, pH 7.0), and the resulting mixture was filtered through 0.2 μm syringe filter.
as §1, with “temperature and” for “temperature,”, “7.0). The” for “7.0), and the”

[3] = drug-loaded 8-arm-PCL-PEG26kDa, phosphate buffer 0.1 M pH 7.0, 37° C., rp-HPLC
Procedure: At timed intervals, 10 μl of sample was withdrawn and diluted with phosphate buffer (0.1 M, pH 7.0). The solution was filtered through 0.2 μm syringe filter.
At timed intervals, 10 μl of sample was withdrawn and diluted with phosphate buffer (0.1 M, pH 7.0). The solution was filtered through 0.2 μm syringe filter. The filtrate was analyzed by rp-HPLC for paclitaxel concentration.

Row | Compound | solubility [1] [µg/mL] | solubility at 2 h [1] [µg/mL] | Drug concentration by HPLC [2] | Soluble drug concentration in solution vs. time (FIGS. 8, 9) [3]
1 | COc1ccc2c(c1)c(CC(=O)O)c(C)n2C(=O)c1ccc(Cl)cc1 [Indomethacin, indomethacin] | 88 (≈ 0.246 mM) | 4000 (≈ 11.2 mM) | – | –
2 | Cn1cc(C2=C(c3cn(C)c4cc([N+](=O)[O-])ccc34)C(=O)NC2=O)c2ccc([N+](=O)[O-])cc21 [MNIPD, 3,4-di-[1-methyl 6-nitro-3-indolyl]-1H-pyrrole-2,5-dione] | < 0.5 | 2600 (≈ 5.84 mM) | – | –
3 | CC(=O)O[C@H]1C(=O)[C@@]2(C)[C@H]([C@H](OC(=O)c3ccccc3)[C@]3(O)C[C@H](OC(=O)[C@H](O)[C@@H](NC(=O)c4ccccc4)c4ccccc4)C(C)=C1C3(C)C)[C@]1(OC(C)=O)CO[C@@H]1C[C@@H]2O [Paclitaxel, paclitaxel] | < 1 | 2000 (≈ 2.34 mM) | above 4.5 mg/ml | retain the paclitaxel in solution for an extended period of time
4 | CCCC(=O)OCOC(=O)C(C)(C)C [Pivaloyloxymethyl butyrate, pivaloyloxymethyl butyrate] | – | 12000 (≈ 59.3 mM) | – | –
